Values quoted from earlier work as cited in patent US8912167B2, “Heparin-based compositions and methods for the inhibition of metastasis” (priority 2011, dated 2014).

Conditions: under physiological conditions

Substance: tetra-[5-(L)-lysyl-amino-O-methylsalicylamide]
- binding to heparin: bind heparin tightly and essentially irreversibly
